Test results: publication PMC11811597, “Phenomics‐Based Discovery of Novel Orthosteric Choline Kinase Inhibitors” (Angewandte Chemie (International Ed. in English), 2025)

Tests used:
FAM195A = molecular target: T1, FAM195A (Homo sapiens, UniProt Q9BUT9); test: Competitive affinity-based chemoproteomics (UNC0965 matrix), MCF7 lysate; assay type: binding; conditions: 20 μM competitor, n=2
T1 construct: endogenous in cells; host or cells: MCF7 whole cell lysate
Protocol: A-366 and UNC0638 were purchased from Tocris. ARIAD and V-11-07-11 were purchased from Wuxi Apptec. UNC0737 and UNC0965 were synthesised as previously described.[1] Hemicholinium-3 and pyruvate kinase/lactic dehydrogenase enzymes were purchased from Sigma Aldrich. Aqueous and organic solvents were MS-grade and acquired by Sigma Aldrich unless stated otherwise.
MDA-MB-231, MCF7 and HEK293 cells were cultured in DMEM (Gibco, #11965092) supplemented with 10% FBS. K562 were cultured in IMDM (Gibco, #12440053) supplemented with 10% FBS. HepG2 were cultured in MEM (Gibco, #11095080) supplemented with 10 % FBS. […]
cultured in McCoy’s 5A (Sigma, M8403) supplemented with 10 % FBS and 1x GlutaMAX (Gibco, #35050061). Cells were maintained at 37 °C in a humidified 5% CO2 atmosphere. Peripheral blood mononuclear cells (PBMC) were isolated from healthy blood donors by density centrifugation. […]
Cell Titer-Glo® reagent was added to each well and total luminescence readings were performed within 15 min using the PHERAstar FSX (BMG Labtech). […]
Digested samples were analysed by nano-UPLC–MS/MS using a Dionex Ultimate 3000 nano UPLC fitted with an EASY spray column (75 μm × 500 mm, 2 μm particle size, Thermo Scientific), coupled to an Orbitrap Q Exactive instrument. […]

SCARB2 = molecular target: T2, SCARB2 (Homo sapiens, UniProt Q14108); test: PISA thermal profiling, intact HepG2 cells; assay type: cell-based; conditions: 30 µM, 60 min, n=3
T2 construct: endogenous in cells; host or cells: intact HepG2 cells
T2 sequence (Q14108 whole entry): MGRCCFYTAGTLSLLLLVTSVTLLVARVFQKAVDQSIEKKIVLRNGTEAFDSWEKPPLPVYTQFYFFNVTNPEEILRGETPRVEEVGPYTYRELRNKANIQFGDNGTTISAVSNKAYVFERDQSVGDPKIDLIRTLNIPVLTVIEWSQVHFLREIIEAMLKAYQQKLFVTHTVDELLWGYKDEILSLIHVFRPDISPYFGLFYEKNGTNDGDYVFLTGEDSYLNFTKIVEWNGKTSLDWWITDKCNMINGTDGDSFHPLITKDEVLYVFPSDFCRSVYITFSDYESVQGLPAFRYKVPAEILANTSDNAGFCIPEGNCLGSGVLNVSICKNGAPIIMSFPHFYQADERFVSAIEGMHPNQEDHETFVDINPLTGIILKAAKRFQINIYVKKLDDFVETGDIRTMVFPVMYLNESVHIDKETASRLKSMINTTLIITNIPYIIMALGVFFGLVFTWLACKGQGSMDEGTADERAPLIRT
Protocol: (§1) To further corroborate our findings, we next performed the proteome integral solubility alteration (PISA) assay in HepG2 human hepatoma cells that express high levels of CHKA. Conceptually building on the cellular thermal shift assay (CETSA) with mass spectrometry based detection,[19, 20] PISA leverages compound‐mediated stabilisation of target proteins without the need of chemical modification in intact cells. […]
(§2) Experiments were performed as described earlier with few modifications. In short, 3 replicates of intact HepG2 cells were treated with 30 µM UNC0638, UNC373 or corresponding volume of DMSO in medium-free experimental buffer for 60 min at 37 °C with end-over-end rotation. For lysates: Washed […]
(§3) end-over-end rotation. Each treated cell suspension or lysate was divided into 12 aliquots and subjected to a 12-step heat gradient from 44 °C to 64 °C. All the temperature points were pooled together to form […] individual samples. Soluble fraction was separated from precipitated proteins […]
(§4) by centrifugation at 30,000 × g for 20 min at 4 °C. The soluble fractions were collected to fresh tubes and further processed to be analysed with mass spectrometry. Sample handling, TMT labelling, LC-MS/MS analysis, protein identification and data analysis was performed as described earlier.[12] […]
(§5) […]

TGOLN2 = molecular target: T3, TGOLN2 (Homo sapiens, UniProt O43493); test: PISA thermal profiling, intact HepG2 cells; assay type: cell-based; conditions: 30 µM, 60 min, n=3
T3 construct: endogenous in cells; host or cells: intact HepG2 cells
T3 sequence (O43493 22-437): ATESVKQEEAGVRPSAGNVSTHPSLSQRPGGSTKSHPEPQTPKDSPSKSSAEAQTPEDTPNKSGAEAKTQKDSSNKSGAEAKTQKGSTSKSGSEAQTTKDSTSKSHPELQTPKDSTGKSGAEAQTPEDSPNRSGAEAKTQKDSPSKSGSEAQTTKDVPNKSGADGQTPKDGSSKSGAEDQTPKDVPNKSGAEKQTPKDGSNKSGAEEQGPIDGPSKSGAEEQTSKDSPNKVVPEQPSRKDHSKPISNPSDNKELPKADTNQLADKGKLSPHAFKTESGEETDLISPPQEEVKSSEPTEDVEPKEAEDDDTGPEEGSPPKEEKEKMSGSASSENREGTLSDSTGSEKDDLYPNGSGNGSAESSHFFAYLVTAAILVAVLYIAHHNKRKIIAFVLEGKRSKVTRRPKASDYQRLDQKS
Protocol: as §1, §2, §3, §4, §5

T1 sequence (Q9BUT9 whole entry): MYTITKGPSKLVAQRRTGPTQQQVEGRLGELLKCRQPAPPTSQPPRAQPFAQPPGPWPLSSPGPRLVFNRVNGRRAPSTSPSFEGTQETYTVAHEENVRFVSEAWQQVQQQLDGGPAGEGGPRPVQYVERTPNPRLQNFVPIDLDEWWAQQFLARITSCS

Row | SMILES | FC vs DMSO (log2 competition), FAM195A (FAM195A) | effect_CETSA_Intact (PISA amplitude), SCARB2 (SCARB2) | effect_CETSA_Intact (PISA amplitude), TGOLN2 (TGOLN2)
1 | COc1cc2c(NC3CCN(C(C)C)CC3)nc(C3CCCCC3)nc2cc1OCCCN1CCCC1 [UNC0638] | -1.845 | 0.251 | 0.53
2 | COc1cc2c(N(C)C3CCN(C(C)C)CC3)nc(C3CCCCC3)nc2cc1OCCCN1CCCC1 [UNC0737] | -0.06296 | 0.514 | 0.571
